Experimental data published in paper PMC9200625, “Identification and Functional Characterization of Peptides With Antimicrobial Activity From the Syphilis Spirochete, Treponema pallidum” (Frontiers in Microbiology, 2022).
Read-outs that look alike come from different tables or passages of the source. Bridge positions count the residues as written; N and C are the ends. Ends that are not written are not given here. Peptide text beside a SMILES is read from it.

What was measured:
E. coli ATCC 9723H = assay type: cell-based
Experimental: (§1) Bacterial strains used in this study were: E. coli ATCC 9723H, Pseudomonas aeruginosa ATCC 10148, Staphylococcus aureus ATCC 6538P (penicillin resistant), Streptococcus pyogenes (hospital isolate, strain unknown), Mycobacterium smegmatis MC^2155, N. gonorrhoeae ATCC 700825 (streptomycin resistant), and Salmonella enterica subsp. enterica serovar Typhimurium SL1344 (streptomycin resistant). E. coli, P. aeruginosa, S. aureus, M. smegmatis, and S. enterica were cultured aerobically at 37°C in Mueller Hinton broth (MHB) (Sigma-Aldrich, MO, United States) and on nonselective Mueller Hinton agar (MHA) plates. S. pyogenes was cultured in 5% carbon dioxide at 37°C in MHB supplemented with 5% lysed horse blood (Quad Five, MT, United States) (MHB + 5% HB) and on nonselective MHA plates supplemented with 5% defibrinated sheep blood (Quad Five, MT, United States) (MHA + 5% SB). N. gonorrhoeae was cultured in 5% carbon dioxide at 37°C in gonococcal (GC) chocolate broth medium and on nonselective GC agar plates [GC medium base (BD Difco, MD, United States) supplemented with 1% BBL™ hemoglobin (BD Biosciences, MD, United States) and 1% IsoVitaleX (BD Biosciences, MD, United States)]. Prior to antimicrobial susceptibility assays (as described below), N. gonorrhoeae cultures were subcultured on nonselective GC agar plates (as described above), to ensure bacterial viability. All bacterial stocks were stored in 20% glycerol at –80°C.
(§2) Bacterial suspensions were prepared by transferring bacterial colonies into MHB and resuspending using a vortex mixer to ensure complete suspension of any bacterial aggregates. Turbidity of the colony suspensions was adjusted spectrophotometrically to the required optical densities to achieve a turbidity equivalent to that of a 0.5 McFarland standard (1–2 × 10^8 CFU/mL) followed by dilution in MHB to achieve the standardized microbial inoculum of approximately 5 × 10^5 CFU/mL. Total viable counts (TVC) were routinely performed on all inoculum suspensions to ensure correct bacterial cell densities. The standardized bacterial suspensions were then incubated with two-fold serial dilutions of each peptide (dissolved in 11 μL of ultrapure sterile water; final peptide concentration range of 256 μg/mL–0.5 μg/mL) in Greiner polypropylene round bottom 96-well microtiter plates (Sigma-Aldrich, MO, United States). Each peptide was tested once per experiment, with a range of 3–9 independent experiments performed per peptide. Negative growth/sterility control wells contained bacterial growth media (100 μL) and the peptide solvent (11 μL of ultrapure sterile water). Positive growth control wells contained the standardized number of bacterial cells (100 μL of ∼ 5.0 × 10^5 CFU/mL) and peptide solvent (11 μL of ultrapure sterile water). Plates were incubated at 37°C for 16–24 h and MICs were determined using the unaided eye to identify the lowest concentration of AMP that inhibited visible growth of the tested bacterial species. If the sterility control well was turbid, the test was not considered valid. MBCs were determined by plating the entire content of the wells containing the peptide/bacteria mixture representing the MIC and the entire contents of the preceding wells containing two-fold and four-fold more concentrated AMP dilutions onto nonselective agar plates.

P. aeruginosa ATCC 10148 = assay type: cell-based, Pseudomonas aeruginosa
Experimental: as §1, §2

S. enterica SL1344 = assay type: cell-based, Salmonella enterica subsp. enterica serovar Typhimurium
Experimental: as §1
(§3) Bacterial suspensions were prepared by transferring bacterial colonies into MHB and resuspending using a vortex mixer to ensure complete suspension of any bacterial aggregates. Turbidity of the colony suspensions was adjusted spectrophotometrically to the required optical densities to achieve a turbidity equivalent to that of a 0.5 McFarland standard (1–2 × 10^8 CFU/mL) followed by dilution in MHB to achieve the standardized microbial inoculum of approximately 5 × 10^5 CFU/mL. Total viable counts (TVC) were routinely performed on all inoculum suspensions to ensure correct bacterial cell densities. […] Plates were incubated at 37°C for 16–24 h and MICs were determined using the unaided eye to identify the lowest concentration of AMP that inhibited visible growth of the tested bacterial species. […] MBCs were determined by plating the entire content of the wells containing the peptide/bacteria mixture representing the MIC and the entire contents of the preceding wells containing two-fold and four-fold more concentrated AMP dilutions onto nonselective agar plates.

S. aureus ATCC 6538P = assay type: cell-based, Staphylococcus aureus
Experimental: as §1, §3

[1] = tested on: S. pyogenes Unknown strain; Clinical Isolate; assay type: cell-based, Streptococcus pyogenes; conditions: for MIC: broth microdilution, cultured in MHB + 5% lysed horse blood, 5% carbon dioxide, ~5 × 10^5 CFU/mL, peptide 256–0.5 μg/mL, 37°C 16–24 h, visible growth
Experimental: as §1, §2

M. smegmatis MC^2155 = assay type: cell-based, Mycobacterium smegmatis
Experimental: as §1, §2

[2] = tested on: N. gonorrhoeae ATCC 700825; assay type: cell-based, Neisseria gonorrhoeae
Experimental: as §1
The potential antimicrobial activity of the T. pallidum peptides against N. gonorrhoeae was determined using a modified agar dilution method. In this assay, N. gonorrhoeae colonies from GC chocolate agar plates were resuspended in MHB and the turbidity of the suspension was adjusted, as described above, to achieve the standardized microbial inoculum of approximately 5 × 10^5 CFU/mL. A two-fold serial dilution of the peptides (11 μL in sterile ultrapure water) was then prepared in wells 1–10 of a 96-well sterile polypropylene plate to obtain a dilution series corresponding to 10 times the required testing concentrations (2,560, 1,280, 640, 320, 160, 80, 40, 20, 10, 5 μg/mL). The bacterial suspension (100 μL) was dispensed into the wells containing the peptides. A negative growth/sterility control (well 12) contained bacterial growth media (100 μL) and the peptide solvent (11 μL of ultrapure sterile water). A positive growth control (well 11) contained the standardized number of bacterial cells (100 μL of ∼ 5.0 × 10^5 CFU/mL) and peptide solvent (11 μL of ultrapure sterile water). The 96-well plate was then incubated at 37°C in an atmosphere of 5% CO2 for 3 h to allow for peptide binding and antimicrobial activity. After the incubation period, an aliquot (20 μL) from wells 1–12 was removed and spotted onto the surface of a GC chocolate agar plate. N. gonorrhoeae spotted plates and TVC plates were incubated at 37°C in an atmosphere of 5% CO2 for 18–24 h. […] To determine the bactericidal activity of peptides, total viable counts (TVCs) were also prepared on GC chocolate agar plates for the 3 h-incubated peptide/bacteria mixtures. These counts were compared with TVCs from the corresponding positive growth wells to give the percentage of bacteria killed by each of the peptides following the 3-h incubation.

[3] = range over 3–9 independent experiments
[4] = wells at MIC, two-fold and four-fold higher plated on nonselective agar, 24 h 37°C, range over 3–9 independent experiments
[5] = broth microdilution in MHB, ~5 × 10^5 CFU/mL, peptide 256–0.5 μg/mL two-fold dilutions, 37°C 16–24 h, visible growth by unaided eye, range over 3–9 independent experiments

Compound	N. gonorrhoeae killing (%) ([2]; ATCC 700825, 3 h, 128 μg/mL)	N. gonorrhoeae killing (%) ([2]; ATCC 700825, 3 h, 256 μg/mL)	N. gonorrhoeae killing (%) ([2]; ATCC 700825, 3 h, 32 μg/mL)	N. gonorrhoeae killing (%) ([2]; ATCC 700825, 3 h, 64 μg/mL)	MIC (M. smegmatis MC^2155; [5])	MBC (M. smegmatis MC^2155; [4])	MIC (E. coli ATCC 9723H; [5])	further results
CC[C@H](C)[C@H](NC(=O)[C@@H](NC(=O)[C@@H]1CCCN1C(=O)[C@H](Cc1ccccc1)NC(=O)[C@@H](N)Cc1ccccc1)[C@@H](C)CC)C(=O)N[C@@H](C)C(=O)N[C@@H](CCCNC(=N)N)C(=O)N[C@@H](CC(C)C)C(=O)N[C@@H](C)C(=O)N[C@@H](C)C(=O)N[C@@H](CCCCN)C(=O)N[C@H](C(=O)N[C@H](C(=O)N1CCC[C@H]1C(=O)N[C@@H](CO)C(=O)N[C@@H](CC(C)C)C(=O)N[C@H](C(=O)N[C@H]1CSSC[C@@H](C(=O)O)NC(=O)[C@H](CCCCN)NC(=O)[C@H](CCCCN)NC(=O)[C@H]([C@@H](C)O)NC(=O)[C@H](C(C)C)NC(=O)[C@H](C)NC1=O)C(C)C)[C@@H](C)CC)C(C)C [RaCa-2] (H-FFPIIARLAAKVIPSLVCAVTKKC-OH; disulfide 18-24; N-terminus and C-terminus assumed)	–	–	–	–	–	–	–	MIC (E. coli ATCC 9723H; ATCC 9723): 3.1 to 12.4 µM; MBC (E. coli ATCC 9723H; ATCC 9723, 24 h): 6.2 to 24.7 µM; MIC (P. aeruginosa ATCC 10148; ATCC 10148): 49.4 to 98.9 µM; MBC (P. aeruginosa ATCC 10148; ATCC 10148, 24 h): ≥98.9 µM; MIC (S. enterica SL1344; SL1344): 6.2 to 49.4 µM; MBC (S. enterica SL1344; SL1344, 24 h): 12.4 to 98.9 µM; MIC (S. aureus ATCC 6538P; ATCC 6538): 3.1 to 6.2 µM; MBC (S. aureus ATCC 6538P; ATCC 6538, 24 h): 3.1 to 12.4 µM; MBC ([1]; Unknown strain, Clinical Isolate, 24 h): 6.2 to 49.4 µM; MIC (M. smegmatis MC^2155; MC^2155): 1.5 to 3.1 µM; MBC (M. smegmatis MC^2155; MC^2155, 24 h): 1.5 to 6.2 µM
CC(C)C[C@H](NC(=O)[C@H](CCC(=O)O)NC(=O)[C@H](CC(N)=O)NC(=O)CNC(=O)[C@H](Cc1ccc(O)cc1)NC(=O)[C@H](CS)NC(=O)[C@H](Cc1c[nH]cn1)NC(=O)[C@H](CC(C)C)NC(=O)[C@H](CO)NC(=O)[C@H](CCCNC(=N)N)NC(=O)[C@H](Cc1c[nH]cn1)NC(=O)[C@H](Cc1ccc(O)cc1)NC(=O)CNC(=O)[C@@H](NC(=O)[C@H](CC(N)=O)NC(=O)[C@H](CS)NC(=O)[C@H](CC(N)=O)NC(=O)[C@H](CS)NC(=O)[C@H](Cc1c[nH]cn1)NC(=O)[C@H](CO)NC(=O)CNC(=O)[C@H](CS)NC(=O)CN)C(C)C)C(=O)N[C@@H](Cc1c[nH]cn1)C(=O)NCC(=O)N[C@@H](CCCCN)C(=O)N[C@@H](CCC(N)=O)C(=O)N[C@@H](CS)C(=O)NCC(=O)N[C@@H](Cc1ccccc1)C(=O)N[C@@H](CO)C(=O)N[C@@H](CCCNC(=N)N)C(=O)N[C@@H](CS)C(=O)NCC(=O)O [Tp0451a_N] (H-GCGSHCNCNVGYHRSLHCYGNELHGKQCGFSRCG-OH)	0%	0%	–	–	–	–	–	–
AMRIALWNRATHGEQGALQHLLAG [Tp0751_p5]	0%	0%	0%	0%	–	–	–	–
IGRARAITHTWGIWCRWGKVWRRS [Tp0451a_C]	94.4–100%	97.6–100%	0–93.0%	90.5–100%	1.4 to 2.7 µM	1.4 to 5.4 µM	–	MIC [1, 3]: 5.4 to 10.8 µM; MBC [1, 4]: 5.4 to 43.3 µM
IGRARAITHTWGIWSRWGKVWRRS [Tp0451a_C_C85S]	0%	0%	0%	0%	5.4 µM	10.9 µM	10.9 to 21.8 µM	MBC (E. coli ATCC 9723H; [4]): 10.9 to 43.6 µM; MIC [1, 3]: 5.4 to 10.9 µM; MBC [1, 4]: 10.9 to 43.6 µM
KGIVAERILKPCVRRKVNGKFRS [Tp0749_C]	0%	0%	–	–	1.5 to 3.0 µM	1.5 to 3.0 µM	12.0 µM	MBC (E. coli ATCC 9723H; [4]): 48.2 to 96.4 µM; MIC (P. aeruginosa ATCC 10148; [5]): 24.1 to 48.2 µM; MBC (P. aeruginosa ATCC 10148; [4]): 96.4 µM
KGIVAERILKPSVRRKVNGKFRS [Tp0749_C_C61S]	0%	0%	–	–	12.1 to 24.2 µM	24.2 to 48.5 µM	24.2 to 48.5 µM	MIC (P. aeruginosa ATCC 10148; [5]): 97.0 µM
PFMQVITWARLYHKNQKRYEKIKK [Tp0749_N]	0%	0%	–	–	0.3 to 1.3 µM	1.3 µM	–	–
RSLEGTDRFPFVRLKNSRKLEFKDIKGIKREQFVKIL [sLL-37]	–	–	–	–	–	–	–	MIC (P. aeruginosa ATCC 10148; ATCC 10148): ≥57 µM; MIC (M. smegmatis MC^2155; MC^2155): 14.2 to 28.5 µM; MBC (M. smegmatis MC^2155; MC^2155, 24 h): ≥57 µM; N. gonorrhoeae killing (%) ([2]; peptide 32 μg/mL, 3-h incubation 37°C 5% CO2, TVCs versus positive growth control, all of three to six independent experiments): 0%; N. gonorrhoeae killing (%) ([2]; peptide 64 μg/mL, 3-h incubation 37°C 5% CO2, TVCs versus positive growth control, all of three to six independent experiments): 0%; N. gonorrhoeae killing (%) ([2]; peptide 128 μg/mL, 3-h incubation 37°C 5% CO2, TVCs versus positive growth control, all of three to six independent experiments): 0%; N. gonorrhoeae killing (%) ([2]; peptide 256 μg/mL, 3-h incubation 37°C 5% CO2, TVCs versus positive growth control, all of three to six independent experiments): 0%
